Source: US12404243B2, “Inhibitors of the Wnt/beta-catenin pathway” (The Regents of the University of California, priority 2018, dated 2025)

Columns and labels:
[1] = tested on: Wnt/β-catenin-mediated transcription; experiment: TCF-luciferase activity assay in 293T/Top/β-cat* cells; assay type: cell-based; conditions: summary of FIGS. 5A, B (293T/Top cells + LiCl) and 6A-C (293T/Top/β-cat* cells)
Procedure: (§1) 293T cells were maintained in DMEM medium containing 10% FBS and antibiotics (penicillin and streptomycin) at 37° C. in 5% CO2. Cells were stably infected with lentiviruses expressing the TopFlash reporter (293T/Top cells). The β-catenin mutant (β-cat*, the constitutively active mutant) construct was prepared using the retroviral expression vector by standard PCR. For viral transduction, retrovirus was obtained by co-trasfection of pQCXIP-β-cat* with packaging plasmids into 293T cells following the manufacturer's instructions. 293T/Top stable cells were seeded in 10 cm dish and incubated overnight. The next day cells were treated with retroviral particles. After 12 hours, the medium was replaced with fresh medium. 2 days post virus infection, the cells were selected with puromycin for 5 days to generate the 293T/Top/β-cat* stable cell line.
293 T/Top/β-cat* cells were plated at 40%-50% confluences in 12-well plate for 8 hours and then treated with Wnt inhibitors overnight. The luciferase activity of total cell lysates was measured using Luciferase Assay System (Promega). The related TCF-luciferase activity was normalized against the protein concentration of each cell lysate sample.

[2] = tested on: SW480 tumor xenografts; experiment: Mouse xenografts of SW480 cells; assay type: in vivo, nude mice; conditions: SW480 xenografts, 10 mg/kg
Procedure: 5×10^5 of SW480 cells were injected subcutaneously into the flank area of 6-8-week-old nude mice. Tumor volume was measured by using an electronic caliper and calculated with the formula length×width^2×0.5, every 2 days. 12 days after inoculation, tumor bearing mice were administered Wnt inhibitors (dissolved in 10% DMSO+20% Cremophor EL+70% normal saline) via intraperitoneal injection for 5 days per week for 10 days at 10 mg/kg. Animal body weights were measured before drug treatments and at the end of the experiments. At the end of the experiments, animals were euthanized with carbon dioxide, followed by cervical dislocation. The tumors were dissected and weighed on the digital balance. We housed mice in pathogen-free facilities under 12-h light and 12-h dark cycle. The animal protocol and experimental procedures were approved by the Division of Laboratory Animal Medicine of UCLA and were in accordance with the US National Institute of Health guidelines.

[3] = tested on: Wnt/β-catenin-mediated transcription; experiment: Topflash reporter activity induced by LiCl in 293T/Top cells; assay type: cell-based; conditions: 20 mM LiCl, increasing concentration of JC001 (FIG. 5A)
Procedure: as §1

Compound: CN(C)CCC(=O)N1C/C(=C\c2ccccc2)C(=O)/C(=C/c2ccccc2)C1 [JC001, 3,5-Di((E)-benzylidene)-1-(3-(dimethylamino)propanoyl)piperidin-4-one]
- Wnt/β-catenin-mediated transcription [1]: significantly inhibited
- tumor volumes ([2]; day 12 to day 20 (FIG. 8A)): significantly reduced tumor volumes
- actual tumor sizes at the end of treatment ([2]; day 12 to day 20 (FIG. 8B)): reduced the size of tumors recovered
- actual tumor weights at the end of treatment ([2]; day 12 to day 20 (FIG. 8C)): significantly reduced the weight of tumors recovered
- Topflash reporter activities induced by LiCl [3]: inhibit Topflash reporter activities
